How the values were obtained:
[1] = test system: T cell responses to MOG35-55; test: T cell responses to MOG35-55 in EAE mice; type: cell-based; settings: EAE mice given oxChol and AIQ
Protocol: Further investigations were performed to determine whether the effect of oxChol on EAE was mediated by PARP.

[2] = test system: EAE in C57BL/6 mice; test: EAE induced with MOG35-55; type: in vivo
Protocol: EAE was induced in C57BL/6 mice with MOG35-55, and 15-ketocholestene, 15-ketocholestane and 15α-hydroxycholestene were administered at days 0, 4, 7 and 10 after EAE induction (10 μg/mice). AIQ was administered intraperitoneally (60 μg/mice) on daily basis. The course of EAE in these mice is shown as the mean EAE score+s.e.m. (MOG35-55 n=22, MOG35-55+oxChol n=24, MOG35-55+oxChol+AIQ n=18).
Spinal cords were taken on day 19 and stained with hematoxylin and eosin, luxol fast blue or silver stain to quantify the cellular infiltrate, demyelination and axonal loss, respectively. Each column represents the mean±SEM resulting from the analysis of at least 8 sections. Administration of oxChol enhanced EAE as measured clinically (FIG. 4A, P<0.0001, two-way ANOVA), and augmented inflammatory infiltrates (FIG. 4B; P<0.05, one-way ANOVA), demyelination (FIG. 4C; P<0.01, one-way ANOVA) and axonal loss (FIG. 4D; P<0.001, one-way ANOVA); these effects were inhibited by treatment with AIQ (P<0.001, one-way ANOVA).

[3] = test system: IgG reactivity to PLP261-277; test: Inhibition of RRMS serum IgG reactivity on antigen microarray by pre-incubation with free peptide; type: binding, human; settings: RRMS sera 1:10 dilution, excess unbound peptide, FIG. 1C
Protocol: RRMS or healthy controls (HC) serum samples were hybridized on antigen microarrays at different concentrations and the mean IgG (FIG. 1A) and IgM (FIG. 1B) reactivity to the CNS, HSP or lipid antigens spotted on the microarrays were measured. Results are presented as mean±SEM of the IgG or IgM reactivity for CNS, HSP or lipid antigens at each dilution. *P<0.05, **P<0.01 and ***P<0.001 (two-way ANOVA) when compared to HC samples tested at the same dilution.
The chips were washed with PBS, blocked for 1 h at 37° C. with 1% BSA, and incubated for 2 hours at 37° C. with a 1:10 dilution of the test serum in blocking buffer under a coverslip in a humid environment. The arrays were then washed and incubated for 45 min at 37° C. with a 1:500 dilution mixture of goat anti-human IgG Cy3-conjugated antibody and a goat anti-human IgM conjugated to Cy5, (both purchased from Jackson ImmunoResearch, West Grove, Pa. The arrays were scanned with a ScanArray 4000× scanner (GSI Luminomics, Billerica, Mass., USA) and the IgM and IgG results were recorded separately. The results were recorded as TIFF files.

| Compound | T cell responses to MOG35-55 as measured by cytokines (IFN-γ and IL-17) or proliferation [1] | inflammatory infiltrates in spinal cord ([2]; day 19, hematoxylin and eosin, FIG. 4B) | demyelination in spinal cord ([2]; day 19, luxol fast blue, FIG. 4C) | axonal loss in spinal cord ([2]; day 19, silver stain, FIG. 4D) | EAE measured clinically (mean EAE score) ([2]; oxChol 10 μg/mice days 0, 4, 7, 10, AIQ 60 μg/mice i.p. daily, FIG. 4A, P<0.0001) | reactivity to PLP261-277 on the antigen array after pre-incubation of the serum with peptide [3] |
| --- | --- | --- | --- | --- | --- | --- |
| Nc1cccc2c(=O)[nH]ccc12 [AIQ, 5-Aminoisoquinolinone] | did not affect | inhibited | inhibited | inhibited | abrogated the worsening of EAE |  |
| PLP261-277: proteolipid protein peptide 261-277, used unbound as competitor (ATYNFAVLKLMGRGTKF) |  |  |  |  |  | inhibited |
